Square brackets hold non-standard residues; d marks the D form. Ends that are not written are not given here. pS = N[C@@H](COP(=O)(O)O)C(=O)O
Legend:
[1] = target: 14-3-3ζ; design: method as in doi:10.1101/2024.03.15.585148; settings: FA assay, binary complex; read-out: KD of bivalent Tau pS2 peptide to 14-3-3ζ; cited from earlier work
[2] = target: T1, 14-3-3ζ/Tau pS2 peptide (Homo sapiens, UniProt P63104); assay: Differential scanning fluorimetry of 14-3-3 with Tau pS2 peptide and compounds; assay type: binding; settings: 10-fold excess of Tau pS2 peptide relative to 14-3-3ζ
T1 construct: made in house; host or cells: NiCo21 (DE3) E. coli
T1 sequence (P63104 1-245): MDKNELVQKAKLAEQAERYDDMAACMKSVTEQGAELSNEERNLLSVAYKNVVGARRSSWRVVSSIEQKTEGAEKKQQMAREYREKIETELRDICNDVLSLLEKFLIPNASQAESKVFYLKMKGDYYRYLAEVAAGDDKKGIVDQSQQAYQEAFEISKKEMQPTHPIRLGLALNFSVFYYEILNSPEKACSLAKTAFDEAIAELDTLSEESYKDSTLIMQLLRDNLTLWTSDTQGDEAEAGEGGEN
Method: Fig. 3 a Dose–response fluorescence anisotropy data of compound titrations to 10 nM FITC-labeled Tau pS2 peptide and 100 nM 14-3-3ζ. […] Mean of three individually performed experiments (see ESI ^† Fig. S8 for the protein titrations). e Differential scanning fluorimetry assay results. Identified melting temperatures (Tm) of 14-3-3γ alone (2.5 μM) and in the presence of Tau pS2 peptide (25 μM) and additionally with selected compounds (75 μM).
As an orthogonal method to profile the PPI stabilizing activity of selected compounds, differential scanning fluorimetry (DSF) assays were performed (Fig. 3e). […] Upon addition of compounds (1, 11, 13–14, and 20–22) to this PPI complex (30-fold compared to 14-3-3ζ), an additional increase in melting temperature between 0.9 °C and 2.1 °C was observed relative to the binary 14-3-3ζ/Tau pS2 peptide system. These observations are in agreement with the stabilization observed in the FA data and strongly testify to the molecular glue effect of our compound, by enhancing the stability of the PPI complex. […]
chromatography (HisTrap high performance cartridges, Cytiva). Typically two 5 mL columns were used for a 2 L culture in which the lysate was loaded on the column, washed with 10 CV wash buffer (50 mM Hepes, pH 8.0, 300 mM NaCl, 25 mM imidazole, 2 mM βME), and eluted with several fractions (2-4 CV) of elution buffer (50 mM Hepes, pH 8.0, 300 mM NaCl, 250 mM imidazole, 2 mM βME). Fractions containing the 14-3-3 protein were combined and dialyzed into 25 mM HEPES pH 8.0, 200 mM NaCl, 10 mM MgCl2, 2 mM βME, followed by dialysis into 25 mM HEPES, 100 mM NaCl, 10 mM MgCl2, 500 μM TCEP (adjusted to pH 8.0). Dialyzed protein was concentrated to ∼40 mg/mL, analyzed by Q -Tof LC/MS, and aliquots were flash -frozen for storage at −80 °C. For 14 -3-3σ∆c, 1 mg TEV per 100 mg purified protein was added to the dialysis to remove the purification tag. The cleaved sample was then again loaded on a 10 mL Ni-NTA column to separate the cleaved product from the expression tag and residual uncleaved protein. The flowthrough was loade d on a Superdex 75 pg 16/60 size exclusion column (GE Life Sciences) using 25 mM HEPES, 100 mM NaCl, 10 mM MgCl2, 500 μM TCEP (adjusted to pH = 8.0) as running buffer. Fractions containing the 14 -3-3 protein were pooled and concentrated to ∼60 mg/mL, analyzed Q -Tof LC/MS, and aliquots were flash -frozen for storage at −80°C. […]
The peptide screen was performed in a similar way as the 14-3-3ζ titration in the precence of compound.
14-3-3ζ was titrated in a 2-fold dilution series (starting at 400 µM 14-3-3ζ) to 100 nM of fluorescein-labeled peptides and 250 µM compound 18 (1% DMSO) in FA buffer (10 mM HEPES pH 7.4, 150 mM […]
Data shown is the average of a scientific triplicate.
Differential Scanning Fluorimetry (DSF)
DSF was performed using 40 µl samples containing 2.5 µM 14 -3-3ζ, 25 µM Tau peptide (Tau pS2, Tau pS214 or Tau pS324), […] (1% DMSO) and 5x ProteoOrange (Lumiprobe, 5000x stock in DMSO) in 10 mM HEPES, 150 mM NaCl, 50 µM TCEP (pH 7.4). The samples were heated from 35 °C to 79°C at a rate of 0.3 °C per 15 s in a C FX96 Touch Real-Time PCR Detection System (Bio -Rad). Fluorescence intensity was determined using excitation ( λem=525/20 nm) and emission ( λex=570/20 nm) filters.
Based on these melting curves, the negative derivative melting curve is obtained from which the melting temperature Tm was determined. All described melting temperatures are based on two or three independent experiments, from which the average and standard deviations were determined.
X-ray crystallography data collection and refinement
For x-ray crystallography, a C-terminally truncated 14-3-3σ protein (truncated after T231 to reduce flexibility) was used. This 14-3-3σ∆C was preincubated with Tau pS214 in complexation buffer (20 mM HEPES pH 7.5, 2 mM MgCl2 and 100 μM TCEP) in a 1:1.5 molar stoichiometry (protein:peptide) at a final protein concentration of 10.0 mg/mL. […]

Tau pS2 peptide: bivalent Tau peptide phosphorylated at S214 + S324: SRTP{pS}LPTPPTREGGGSGGGSGGGVTSKCG{pS}LGNIHHK (chain 1 SRTP[pS]LPTPPTREGGGSGGGSGGGVTSKCG[pS]; numbers in words are those of the source; also: chains 1 and 2 are one continuous peptide joined through pS324) [reference compound]
Kd [1]: 945 ± 70 nM | ΔTm, increase of 14-3-3 melting temperature compared to apo-14-3-3ζ [2]: ~0.6 °C
